Measurements: PubChem BioAssay (NCI)
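Values below derive from 48-hour exposures of cells grown in 96-well plates, with endpoints linearly interpolated between the two concentrations bracketing the appropriate inhibition level. Definition used: TGI = concentration required for complete inhibition of growth.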

Columns and labels:
Experiment in all cases: DTP human tumour cell line panel, 48 h
786-0 renal = tested on: 786-0 renal
A498 renal = tested on: A498 renal
A549 NSCLC = tested on: A549 NSCLC
ACHN renal = tested on: ACHN renal
CAKI-1 renal = tested on: CAKI-1 renal
CCRF-CEM leukemia = tested on: CCRF-CEM leukemia
COLO 205 colon = tested on: COLO 205 colon
DLD-1 colon = tested on: DLD-1 colon
DMS 114 small cell lung = tested on: DMS 114 small cell lung
DMS 273 small cell lung = tested on: DMS 273 small cell lung
EKVX NSCLC = tested on: EKVX NSCLC
HCC-2998 colon = tested on: HCC-2998 colon
HCT-116 colon = tested on: HCT-116 colon
HCT-15 colon = tested on: HCT-15 colon
HL-60(TB) leukemia = tested on: HL-60(TB) leukemia
HOP-18 NSCLC = tested on: HOP-18 NSCLC
HOP-62 NSCLC = tested on: HOP-62 NSCLC
HOP-92 NSCLC = tested on: HOP-92 NSCLC
HT29 colon = tested on: HT29 colon
IGROV1 ovarian = tested on: IGROV1 ovarian
K-562 leukemia = tested on: K-562 leukemia
KM12 colon = tested on: KM12 colon
KM20L2 colon = tested on: KM20L2 colon
LOX IMVI melanoma = tested on: LOX IMVI melanoma
LXFL 529 NSCLC = tested on: LXFL 529 NSCLC
M14 melanoma = tested on: M14 melanoma
M19-MEL melanoma = tested on: M19-MEL melanoma
MALME-3M melanoma = tested on: MALME-3M melanoma
MOLT-4 leukemia = tested on: MOLT-4 leukemia
NCI-H226 lung = tested on: NCI-H226 lung
NCI-H23 lung = tested on: NCI-H23 lung
NCI-H460 lung = tested on: NCI-H460 lung
NCI-H522 lung = tested on: NCI-H522 lung
OVCAR-3 ovarian = tested on: OVCAR-3 ovarian
OVCAR-4 ovarian = tested on: OVCAR-4 ovarian
OVCAR-5 ovarian = tested on: OVCAR-5 ovarian
OVCAR-8 ovarian = tested on: OVCAR-8 ovarian
RPMI-8226 leukemia = tested on: RPMI-8226 leukemia
RXF-631 renal = tested on: RXF-631 renal
SF-268 CNS = tested on: SF-268 CNS
SF-295 CNS = tested on: SF-295 CNS
SF-539 CNS = tested on: SF-539 CNS
SK-MEL-2 melanoma = tested on: SK-MEL-2 melanoma
SK-MEL-28 melanoma = tested on: SK-MEL-28 melanoma
SK-MEL-5 melanoma = tested on: SK-MEL-5 melanoma
SK-OV-3 ovarian = tested on: SK-OV-3 ovarian
SN12C renal = tested on: SN12C renal
SNB-19 CNS = tested on: SNB-19 CNS
SNB-75 CNS = tested on: SNB-75 CNS
SNB-78 CNS = tested on: SNB-78 CNS
SR leukemia = tested on: SR leukemia
SW-620 colon = tested on: SW-620 colon
TK-10 renal = tested on: TK-10 renal
U251 CNS = tested on: U251 CNS
UACC-257 melanoma = tested on: UACC-257 melanoma
UACC-62 melanoma = tested on: UACC-62 melanoma
UO-31 renal = tested on: UO-31 renal
XF 498 CNS = tested on: XF 498 CNS

Compound: COc1cc2c(cc1OC)CC(=O)Nc1cc(OC)c(OC)cc1CC2
- TGI (786-0 renal): > 100 µM
- TGI (A498 renal): > 100 µM
- TGI (A549 NSCLC): > 100 µM
- TGI (ACHN renal): > 100 µM
- TGI (CAKI-1 renal): > 100 µM
- TGI (CCRF-CEM leukemia): > 100 µM
- TGI (COLO 205 colon): > 100 µM
- TGI (DLD-1 colon): > 100 µM
- TGI (DMS 114 small cell lung): 91.9 µM
- TGI (DMS 273 small cell lung): > 100 µM
- TGI (EKVX NSCLC): > 100 µM
- TGI (HCC-2998 colon): > 100 µM
- TGI (HCT-116 colon): > 100 µM
- TGI (HCT-15 colon): > 100 µM
- TGI (HL-60(TB) leukemia): 64.3 µM
- TGI (HOP-18 NSCLC): > 100 µM
- TGI (HOP-62 NSCLC): > 100 µM
- TGI (HOP-92 NSCLC): > 100 µM
- TGI (HT29 colon): > 100 µM
- TGI (IGROV1 ovarian): > 100 µM
- TGI (K-562 leukemia): > 100 µM
- TGI (KM12 colon): > 100 µM
- TGI (KM20L2 colon): > 100 µM
- TGI (LOX IMVI melanoma): > 100 µM
- TGI (LXFL 529 NSCLC): > 100 µM
- TGI (M14 melanoma): > 100 µM
- TGI (M19-MEL melanoma): > 100 µM
- TGI (MALME-3M melanoma): 99 µM
- TGI (MOLT-4 leukemia): > 100 µM
- TGI (NCI-H226 lung): > 100 µM
- TGI (NCI-H23 lung): > 100 µM
- TGI (NCI-H460 lung): > 100 µM
- TGI (NCI-H522 lung): 47.5 µM
- TGI (OVCAR-3 ovarian): > 100 µM
- TGI (OVCAR-4 ovarian): > 100 µM
- TGI (OVCAR-5 ovarian): > 100 µM
- TGI (OVCAR-8 ovarian): > 100 µM
- TGI (RPMI-8226 leukemia): > 20 µM
- TGI (RXF-631 renal): > 100 µM
- TGI (SF-268 CNS): > 100 µM
- TGI (SF-295 CNS): > 100 µM
- TGI (SF-539 CNS): 97.2 µM
- TGI (SK-MEL-2 melanoma): > 100 µM
- TGI (SK-MEL-28 melanoma): > 100 µM
- TGI (SK-MEL-5 melanoma): 71 µM
- TGI (SK-OV-3 ovarian): > 100 µM
- TGI (SN12C renal): > 100 µM
- TGI (SNB-19 CNS): > 100 µM
- TGI (SNB-75 CNS): > 100 µM
- TGI (SNB-78 CNS): > 100 µM
- TGI (SR leukemia): > 43.7 µM
- TGI (SW-620 colon): > 100 µM
- TGI (TK-10 renal): > 100 µM
- TGI (U251 CNS): > 100 µM
- TGI (UACC-257 melanoma): > 100 µM
- TGI (UACC-62 melanoma): > 100 µM
- TGI (UO-31 renal): > 100 µM
- TGI (XF 498 CNS): > 100 µM
